Source: patent US20160374908A1, “SKIN CARE COMPOSITION AND METHODS OF USING THE SAME” (The Procter & Gamble Company, priority 2015, published 2016)

Legend:
[1] = tested on: HMGB1 released from keratinocytes exposed to UVB; assay: In Vitro UV Stress Test (HMGB1 ELISA); assay type: cell-based, human; conditions: for amount of HMGB1 released compared to untreated UVB exposed cells: UVB exposed keratinocytes, 0.001 w/v %
Method: Human neonatal keratinocytes (available from Thermo) were placed in each well of 4 12-well plates. Each well also contained 2 ml of EPILIFE brand keratinocyte medium. The plates were incubated at 37° C. in a CO2 incubator until cell confluency reached 70%. At this point, the cells, except for the negative control, were exposed to 15 mJ/cm^2 UVB (i.e., UV radiation with a wavelength of from 315-280 nm) in a BIO-SUN brand UV irradiating system (available from Vilber Lourmat, France). After UVB exposure, the keratinocyte medium in each well was replaced with an appropriate medium (i.e., niacinamide medium, nicotinamide riboside medium or a control medium) to produce the test plates. The test plates were incubated for 24 hours at 37° C. in a CO2 incubator, after which the medium in each cell was removed and the HMGB1 level measured using a conventional HMGB1 ELISA kit (REF #ST51011, available from IBL International, Canada) according to the manufacturer's instructions. The test media were made by adding either niacinamide or nicotinamide riboside to EPILIFE brand keratinocyte medium to produce a 0.001 w/v % solution. The control medium was unmodified keratinocyte medium.

[2] = tested on: human neonatal keratinocytes; assay: Melanosome Uptake Assay; assay type: cell-based
Method: Carboxyfluorescein diacetate (“CFDA”) (available from Sigma, St. Louis, Mo.) labeled melanosomes were prepared by incubating CFDA dye in SKMEL-188 culture cells (available from Sloan Kettering Institute) for 2 days at 37° C. in a THERMO SCIENTIFIC FORMA brand CO2 incubator (available from Fisher Scientific, Waltham, Mass.). On day 3 of the test, melansomes were isolated from SKMEL-188 cells by step density centrifugation with sucrose solutions layered with different densities, which is well known in the art. Melanosomes were taken from the 1.6 M-2.0 M sucrose layers. The isolated melanosomes were placed in each well of a 6-well plate along with human neonatal keratinocytes (available from Thermo) (approximately 50,000 keratinocytes/well). 2 ml of the appropriate medium (i.e., the test composition, the positive control or the vehicle control) was added to each of the wells to produce […] (i.e., 3 replicates of each of three composition tested). The test composition was made by adding nicotinamide riboside chloride powder (available from Chromadex, Irvine, Calif.) to EPILIFE brand keratinocyte medium to produce a solution of 0.0025 w/v % nicotinamide riboside. The positive control was made by adding niacinamide to EPILIFE brand keratinocyte medium to produce a solution of 0.0025 w/v % niacinamide. Unmodified keratinocyte medium was used as a vehicle control. The resulting test plates were incubated for two days in EPILIFE brand keratinocyte medium. On day 6 of the test, the keratinocytes were detached from the plates using trypsin and fluorescent-label counted by flow cytometry using an LSRFortessa brand flow cytometer (available from Becton Dickinson, NJ). The percentage of cells that had fluorescence (from CFDA label) was used as a metric to measure incorporation of melanosome uptake. Keratinocytes containing detectable levels of CFDA were counted as a fraction of all keratinocytes passing through the flow cytometer (indicated as % uptake in Table 2). The higher the percentage, the higher level of melanosome uptake into the keratinocytes.

[3] = tested on: pigmented spots in facial skin; assay: Oral nicotinamide riboside, appearance of pigmented spots after cessation of the treatment period; assay type: in vivo; conditions: oral composition
From the text: In some instances, the method herein includes identifying a target portion of facial skin in need of treatment and orally ingesting a safe and effective amount of nicotinamide riboside over the course of a multi-day, or multi-week, or multi-month, or multi-year treatment period. Nicotinamide riboside may be incorporated into a suitable oral composition. The target portion of facial skin is any portion of facial skin (e.g., periorbital, cheek, chin, perioral, nose, forehead, etc.) where improvement in the appearance of skin is desired (e.g., reduction in size and/or increase in lightness of hyperpigmented spot). […] In this way, the present compositions may be used as a preventative measure for skin pigmentation disorders. The oral composition may be ingested one time per day, two times per day, three times per day (e.g., around each meal), four times per day or more during the treatment period. The daily dosage of nicotinamide riboside may be greater than 100 mg, preferably greater than 250 mg, more preferably greater than 300 mg, most preferably greater than 400 mg or 500 mg. The weekly dosage may be greater than 2100 mg/week, 2800 mg/week, or 3500 mg/week. The daily dosage may be provided in a single unit dosage form (e.g., a single pill, capsule or tablet) or may be provided in smaller unit dosage forms if the oral composition is intended to be taken more than once per day. […]

Compound | amount of HMGB1 released compared to untreated UVB exposed cells [1] | rate of melanosome uptake compared to the vehicle control ([2]; 0.0025 w/v %) | % Uptake ([2]; 0.0025 w/v % in keratinocyte medium, fraction of keratinocytes with detectable CFDA-labeled melanosomes, flow cytometry) | Rate of Melanosome Uptake Versus Control ([2]; 0.0025 w/v %, vehicle control = 100%) | time after cessation of the treatment period to regression to baseline in the appearance of the pigmented spots [3] | HMGB1 Released ([1]; UV exposure 15 mJ/cm^2 UVB, 0.001% in medium, 24 hours)
Nicotinamide riboside | released less HMGB1 | increase the rate of melanosome uptake | 67% | 186% | ≤ 2 weeks | 
NC(=O)c1cccnc1 [Niacinamide, niacinamide, reference compound] | no significant effect | inhibit the rate of melanosome uptake |  |  |  | 
NC(=O)c1ccc[n+]([C@@H]2O[C@H](CO)[C@@H](O)[C@H]2O)c1.[Cl-] [Nicotinamide Riboside Chloride, nicotinamide riboside chloride] |  |  |  |  |  | 11.5 pg/mL
